These results are taken from patent US10759740B2, “Antibacterial agents” (Rutgers, The State University of New Jersey, priority 2016, dated 2020).

Values after ≈ are worked out from the molar mass of the structure shown. A value given as a limit tells only on which side of the number the result lay.

By MIC is commonly meant the lowest concentration found to suppress growth.

For test [1], the system named is Salmonella enterica serovar typhimurium. Description: Broth microdilution assay (MIC). Type of test: cell-based. As to conditions: BHI broth, 37° C., 24 h, no visible growth. On the procedure: (§1) From the frozen stock (−80° C.), bacteria were inoculated into brain-hear infusion (BHI) agar (Becton Dickinson, Franklin Lakes, N.J.) and propagated under aerobic conditions at 37° C. for 24 h. After the incubation, one colony of each bacterial strain was transferred to BHI broth (Becton Dickinson, Franklin Lakes, N.J.) and sub-cultured at least twice into BHI before being used in experiments.
(§2) The minimal inhibitory concentration (MIC) of CAms were identified using a broth microdilution assay modified from previous studies. Briefly, the stock solutions of CAMs were first prepared by dissolving in double-distilled water (ddH2O) and then diluted in BHI broth at pre-determined concentrations. Further serial 2-fold dilutions were performed in a 96-well microplate (Becton Dickinson, Franklin Lakes, N.J.) with BHI broth. The inoculum concentration was adjusted to 5×10^6 CFU/mL with ultraviolet-visible (UV-vis) spectroscopy at 600 nm. An equal volume (100 μL) of bacterial suspension was added to each microplate well with a final volume of 200 μL. Plates were incubated at 37° C. for 24 h under aerobic conditions. The lowest CAm concentration that yielded no visible growth was recorded as the MIC. Cetyltrimethylammonium bromide (CTAB), a cationic amphiphile, served as a positive control that could mimic the proposed bactericidal mechanism of the newly synthesized tartaric acid-based compounds.
CAms were evaluated against five selected pathogenic microorganisms, including Gram-positive bacteria (i.e., S. aureus and L. monocytogenes) and Gram-negative bacteria (i.e., E. coli, S. typhimurium, and P. aeruginosa), using a turbidity-based microdilution method. MICs were taken as the lowest concentrations that inhibited the visible bacterial growth.
Background: Broth dilution looks for growth in wells or tubes with falling amounts of substance.

Test [2] has as its system Gram-positive and Gram-negative bacteria. Put plainly: Broth microdilution assay, whole panel. It counts as cell-based. Particulars: 250 μg/mL. On the procedure:
as §1
as §2, with “Plates were incubated at 37° C. for 24 h under aerobic conditions.” left out, “Cetyltrimethylammonium bromide (CTAB), a cationic amphiphile, served as a positive control that could mimic the proposed bactericidal mechanism of the newly synthesized tartaric acid-based compounds.” left out
CAms were evaluated against five selected pathogenic microorganisms, including Gram-positive bacteria (i.e., S. aureus and L. monocytogenes) and Gram-negative bacteria (i.e., E. coli, S. typhimurium, and P. aeruginosa), using a turbidity-based microdilution method. […]

Test [3] concerns Listeria monocytogenes Scott A. Put plainly: Broth microdilution assay (MIC). Type of test: cell-based. As to conditions: BHI broth, 37° C., 24 h, no visible growth. On the procedure:
as §1, §2
(§3) CAms were evaluated against five selected pathogenic microorganisms, including Gram-positive bacteria (i.e., S. aureus and L. monocytogenes) and Gram-negative bacteria (i.e., E. coli, S. typhimurium, and P. aeruginosa), using a turbidity-based microdilution method. MICs were taken as the lowest concentrations that inhibited the visible bacterial growth. […] The higher MIC values for the Gram-negative bacteria could be attributed to the presence of an additional lipopolysaccharide layer, which forms a hydrophilic barrier that could prevent penetration of the highly hydrophobic CAms.

Test [4] concerns Staphylococcus aureus ATCC 13565. Description: Broth microdilution assay (MIC). It counts as cell-based. As to conditions: BHI broth, 37° C., 24 h, no visible growth. On the procedure: as §1, §2, §3
In another test the test system is Escherichia coli O157:H7. Description: Broth microdilution assay (MIC). Type of test: cell-based. Particulars: BHI broth, 37° C., 24 h, no visible growth. On the procedure: as §1, §2, §3
The test system of test [5] is Pseudomonas aeruginosa ATCC 15442. Put plainly: Broth microdilution assay (MIC). Particulars: BHI broth, 37° C., 24 h, no visible growth. Type of test: cell-based. On the procedure: as §1, §2, §3
The subject of test [6] is G. vaginalis pre-formed biofilms. Put plainly: MBC-B against pre-formed biofilms (Example 2). Type of test: cell-based. Particulars: ≥3 log reduction in viable cells. On the procedure: The minimum biofilm bactericidal concentrations (MBC-Bs) of the cationic amphiphiles against pre-formed biofilms of L. monocytogenes and G. vaginalis were identified. The biofilms of the two targeted microorganisms were grown in 96-well plates according to established methodology for Gram-positive and Gram-variable bacteria (Tabak et al., FEMS microbiology letters. 2009; 301(1):69-76). To identify the reduction in the number of biofilm-associated viable cells treated with different concentrations of cationic amphiphiles, the spot plate method was used (Turovskiy et al., Infectious diseases in obstetrics and gynecology. 2012; 2012:284762, 9 pages). In brief, biofilms were washed, disrupted, diluted 10^1-10^8 times with fresh medium and the samples plated on suitable solid medium.

For the next test, the system named is vaginal lactobacilli. Description: MIC against vaginal lactobacilli. Type of test: cell-based, Lactobacillus species. On the procedure: According to Clinical and Laboratory Standards Institute (CLSI 2010), the MIC is defined as the lowest concentration of antimicrobial compound producing no visible growth or complete inhibition of bacterial growth during 24 h. To determine MIC values, the broth microdilution assay was performed according to Algburi et al. (Algburi et al., 2015. Path Dis 73(5)) with minor modifications. Briefly, the overnight-grown cells were diluted with their suitable culture medium to approach ˜10^6 CFU/ml. The number of bacterial cells was identified using spot plate method (Turovskiy et al., 2012. Infect Dis Obstet Gynecol 2012:284762). The CAms were serially diluted twofold with sBHI into a non-tissue culture 96-well microplate plate (Falcon, Corning Incorporated, Corning, N.Y., USA) resulting in a final volume of 100 μl for each well. Aliquots of 100 μl of the diluted cell suspension (˜10^6 CFU/ml) were added to each well of a microplate that was treated with different concentrations of CAms. To avoid culture medium evaporation, 75 μl of mineral oil (Sigma-Aldrich, St. Louis, Mo.) was added to each treated well. The microplate was then transferred to the plate reader (Model 550, Bio-Rad Laboratories, Hercules, Calif., USA) and incubated at 37° C. for 24-36 h. The kinetic reading was statistically analyzed, and the MIC and sub-MIC of each CAm compound were determined.

In test [7] the test system is planktonic cells of G. vaginalis. Put plainly: Checkerboard assay, planktonic cells. It counts as cell-based, Gardnerella vaginalis. On the procedure:
To evaluate the potential effectiveness of the antimicrobial combinations on planktonic and biofilm cells, a checkerboard assay was performed following Algburi et al. (Algburi et al., 2015. Path Dis 73(5)) with minor modifications. For planktonic cells, the overnight grown G. vaginalis was diluted to approximately 10^6 CFU/ml. Each antimicrobial agent was diluted twofold with sBHI broth into two separate 96-well non-tissue culture microplates. From each dilution of antimicrobial B, 50 μl was added horizontally over 50 μl of antimicrobial A. Then, 100 μl of bacterial suspension (10^6 CFU/ml) was separately added to the predetermined concentration of antimicrobial combinations. The MIC of each combination was determined after 24 h of incubation.
(§4) Isobolograms were used to compare the MIC and MBC-B values of each antimicrobial alone with its MIC and MBC-B values in combination with other antimicrobials. The point on the axis (X) refers to MIC or MBC-B values of the first antimicrobial with the coordinates (0, x), and the point on the axis (Y) represents the MIC or MBC-B values of the second antimicrobial with the coordinates (y, 0) when they used alone. The two MIC or MBCs-B values are connected by a dashed line (Turovskiy Y, Chikindas M L. 2011 Probiotics Antimicrob Proteins 3:144-149). The MICs or MBCs-B of each antimicrobial combination are plotted as dots on the graph. Results are expressed according to the locations of these dots from the line that connects MICs or MBCs-B of the first and second antimicrobials. When MICs or MBCs-B values are located under the line, the two combining antimicrobials are synergized, but antagonized against the tested microorganism when these dots of interaction are above. An additive effect is observed when these dots are located on the line.

The next test has as its system biofilms of G. vaginalis. Put plainly: Checkerboard assay, biofilm cells. It counts as cell-based, Gardnerella vaginalis. On the procedure:
For biofilm formation, the overnight culture of G. vaginalis was diluted to approximately 10^7 CFU/ml and 200 μl was transferred into a 96-well tissue culture microplate and incubated anaerobically at 37° C. for 24-36 h. Following biofilm formation and removal of non-adherent cells by washing the biofilm twice with BHIG, each antimicrobial was diluted twofold separately with BHIG broth into two 96-white deep-well microplates. From each dilution of antimicrobial B, 125 μL was added horizontally over 125 μL of antimicrobial A (see FIG. 1 of Algburi et al., 2015. Path Dis 73(5)). From each combination, 200 μL samples were added to the biofilm in sequence, and the microplate was incubated for 24 h at 37° C. under anaerobic conditions. The spot plate method was utilized for counting the number of CFU/ml and evaluating the bactericidal activity (MBC-B) of each antimicrobial combination against biofilm-associated G. vaginalis. Isobolograms were used to analyze the nature of antimicrobial interaction, which is classified as synergistic, antagonistic or additive activity against the planktonic and biofilm cells.
as §4

For the compound `CCCCCCCCCCCCOC(C(=O)NCCN)C(OCCCCCCCCCCCC)C(=O)NCCN.Cl.Cl` (stereo not shown) [5c], the “MIC S. typhimurium (G−)” value in [1] was >250 µg/mL. Moreover, the “antimicrobial activity at the highest concentration tested” value in test [2] is “didn't show appreciable antimicrobial activity”. In addition, in test [3], the “MIC L. monocytogenes (G+)” value was 125 µg/mL. Further, in [4], the “MIC S. aureus (G+)” value came out at 3.9 µg/mL. In addition, the “MIC E. coli (G−)” value in the test on Escherichia coli O157:H7 was >250 µg/mL. Also, the “MIC P. aeruginosa (G−)” value in [5] is >250 µg/mL.
Take `CCCCCCCCCCCC(=O)OC(C(=O)NCCN)C(OC(=O)CCCCCCCCCCC)C(=O)NCCN.Cl.Cl` (stereo not shown) [8c]: the “MIC S. typhimurium (G−)” value in test [1] was >250 µg/mL. Moreover, the “antimicrobial activity at the highest concentration tested” value in [2] is on record as “didn't show appreciable antimicrobial activity”. In addition, the “MIC L. monocytogenes (G+)” value in test [3] is >250 µg/mL. Besides, the “MIC S. aureus (G+)” value in test [4] came to 15.6 µg/mL. In addition, the “MIC E. coli (G−)” value against Escherichia coli O157:H7 is >250 µg/mL. In [5], the “MIC P. aeruginosa (G−)” value is >250 µg/mL.
Compound `CCC[C@@H]1C[C@@H](C(=O)N[C@@H]([C@H]2O[C@H](SC)[C@H](O)[C@@H](O)[C@H]2O)[C@H](C)Cl)N(C)C1` [clindamycin, reference compound] registered an MBC in test [6] (Gardnerella vaginalis, pre-formed biofilm) of 20000 µg/mL (≈ 47.1 mM).
Regarding `Cc1ncc([N+](=O)[O-])n1CCO` [metronidazole, reference compound], in the test with vaginal lactobacilli, the “concentration that inhibited the growth of vaginal lactobacilli” value was > 1168.5 µM. The “metronidazole's MIC in combination with the tested CAms” value in test [7] came to 4.7 µM. Moreover, the minimum inhibitory concentration (MIC) in test [7] (Gardnerella vaginalis, read-out: MIC when used alone) is 37.4 µM. This compound also registered an MBC-B, biofilm-associated G. vaginalis in test [6] of 500 µg/mL (≈ 2.92 mM). In the test with biofilms of G. vaginalis, the “metronidazole's MIC against biofilms in combination with the tested CAms” value is 11.1 µM and the “metronidazole's MIC against biofilms, metronidazole alone” value was 40.4 µM.
